Entries after “also recorded” stand apart in the source; their conditions may differ.
T1: Human Skin Chymase (Homo sapiens, UniProt P23946)
T1 construct: purchased Cortex Biochem CP1129; host or cells: human skin
T1 sequence (P23946 22-247): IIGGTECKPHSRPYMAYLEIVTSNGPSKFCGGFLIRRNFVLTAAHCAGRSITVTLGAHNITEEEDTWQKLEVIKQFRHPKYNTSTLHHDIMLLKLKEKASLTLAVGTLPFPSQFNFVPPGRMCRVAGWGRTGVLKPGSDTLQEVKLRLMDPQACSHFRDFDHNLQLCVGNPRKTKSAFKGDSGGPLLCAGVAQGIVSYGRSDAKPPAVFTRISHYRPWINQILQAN

B1: Trypsin: Activates TR and PAR-2 (protein, UniProt P00760 24-246, looked up)
Serine protease 1: IVGGYTCGANTVPYQVSLNSGYHFCGGSLINSQWVVSAAHCYKSGIQVRLGEDNINVVEGNEQFISASKSIVHPSYNSNTLNNDIMLIKLKSAASLNSRVASISLPTSCASAGTQCLISGWGNTKSSGTSYPDVLKCLKAPILSDSSCKSAYPGQITSNMFCAGYLEGGKDSCQGDSGGPVVCSGKLQGIVSWGSGCAQKNKPGVYTKVCNYVSWIKQTIASN
B2: STI: soybean trypsin inhibitor, available from Sigma (protein, UniProt P01070 25-205, looked up)
Trypsin inhibitor A: DFVLDNEGNPLENGGTYYILSDITAFGGIRAAPTGNERCPLTVVQSRNELDKGIGTIISSPYRIRFIAEGHPLSLKFDSFAVIMLCVGIPTEWSVVEDLPEGPAVKIGENKDAMDGWFRLERVSDDEFNNYKLVFCPQQAEDDKCGDIGISIDHDDGTRRLVVSKNKPLVVQFQKLDKESL

Tests used:
[1] = system: MelanoDerm human epidermal equivalents; experiment: Pigmentation of MelanoDerm epidermal equivalents (DOPA, H&E or F&M staining, image analysis); assay type: cell-based; details: for pigmentation/melanogenesis in epidermal equivalents: MelanoDerm, three days of treatment, stained on fourth day, FIG. 1B, FIG. 2, FIG. 3
[2] = system: human primary melanocytes; experiment: Pigmentation of primary melanocyte cultures; assay type: cell-based; details: for level of pigmentation, human primary melanocytes: melanocytes alone
[3] = system: Co-cultures (no K-M contact); experiment: Pigmentation of keratinocyte-melanocyte co-cultures without K-M contact; assay type: cell-based, human; details: Table D; three days, DOPA stained on fourth day
Source text: Since PAR-2 is not expressed in melanocytes, we tested the possible requirement of keratinocyte-melanocyte interactions for the depigmenting effect of Compound I. Primary melanocyte cultures were compared to identical cultures plated under epidermal equivalents (EpiDerm, lacking melanocytes) to create a co-culture with no contact between keratinocytes and melanocytes. These were also compared to MelanoDerm equivalents, where melanocytes are present in the basal layer of the equivalent. Cultures were treated for three days with Compound I, with the PAR-2 agonist SLIGRL, and with the TR agonist TFLLRNPNDK, as set forth in Table D, and DOPA stained on the fourth day. In Table D, keratinocytes are indicated by "K", melanocytes are indicated by "M" and lack of keratinocyte-melanocyte contact is indicated as "no K-M contact". […] In MelanoDerm equivalents, compound I reduced and SLIGRL induced pigmentation, while TFLLRNPNDK had no effect.

human Lung Tryptase = experiment: Tryptase IC50 Method; assay type: biochemical; details: 37° C., 1.0 nM enzyme, 500 μM substrate
Description: The enzyme reaction is started by the addition of enzyme ([E]: 1.0 nM human Lung Tryptase; Cortex Biochem CP3033). Data is collected over a period of 30 min. and the initial rate of substrate hydrolysis (Vo (mOD/min)) is calculated. Inhibition is calculated by comparing to wells containing no inhibitor (vehicle) and IC50 s are determined using a four parameter fit logistics model. […] The enzyme reaction is started by the addition of enzyme ([E]: 10.0 nM Human Skin Chymase; Cortex Biochem CPl 129). Data is collected over a period of 30 min. and the initial rate of substrate hydrolysis (Vo (mOD/min)) is calculated. Inhibition is calculated by comparing to wells containing no inhibitor (vehicle) and IC50 s are determined using a four parameter fit logistics model. Chymase 10 μM Screen Method: The optical density at 405 nm due to hydrolysis of synthetic chromogenic peptide substrates ([S]: 500 μM Suc-Ala-Ala-Pro-Phe-pNA; Bachem L-1400) is measured in the presence and absence of inhibitor compounds of formula (I) with a microplate reader at room temperature. The enzyme reaction is started by the addition of enzyme ([E]: 5.0 nM Human Skin Chymase; Cortex Biochem CP1129), and 3 hours following that addition data is collected. After subtracting background (no enzyme addition), inhibition is calculated by comparing to wells containing no inhibitor (vehicle).

in vivo = experiment: in vivo; parameters: species or system male rats (Long Evans); details: rat, iv
Description: Since the compounds of the formula (l) are also potent thrombin inhibitors (see U.S. Pat. No. 5,523,308), an ex vivo thrombin assay was conducted to determine the duration of action of the compounds of Formula I. For this i.v. assay male rats (Long Evans, 350-500 g) were implanted with a teflon cannulae via the femoral artery while under anesthesia (pentobarbital i.p., 35 mg/kg). After surgery, the animals were individually housed in standard cages, fed with rat chow (Hanlan, #8604) and continuously infused with physiological saline to maintain arterial patency, (0.5 mL/h, intra arterial) using a spring-shielded swiveling tether connected to an infusion system. The animals were allowed to recover for at least 24 h after the surgical procedure.
A sample of blood was drawn from the animals 15 min before dosing with the inhibitor (0.25 mL blood is drawn into a syringe containing 0.025 mL of Sigma sodium citrate). The test compound was dispersed in water and delivered to the animal (0.25 mL) via the femoral vein. The inhibitor was given at a concentration (mg/mL) which produced 80% inhibition of VO in a plasma sample at 5 min after infusion. Blood was drawn from the arterial line (blood:sodium citrate, 0.25/0.025 mL ) at regular intervals after dosing (5, 10, 15, 30, 60 and 120 min) and placed in a centrifuge tube. A plasma sample was obtained by centrifuging the blood at 10,000 rpm for 5 min. This sample is analyzed for thrombin inhibition using the chromogenic assay, described below.
The rate of increase in absorbance at 405 nm of synthetic peptides (50 μM Spectozyme® TH (H-D-HHT-Ala-Arg-pNA-2AcOH), American Diagnostica) is measured in the presence of plasma with a microplate reader (Molecular Devices) at 37° C. using an aqueous buffer (10 mM Tris, 10 mM Hepes, 150 mM NaCl, 0.1% PEG; pH 7.4). The buffer was added to the plasma samples (1:1) dilution prior to delivery to the microplate (1:5 and 1:50 for final plasma dilutions of 1:10 and 1:100 respectively) followed by the enzyme (1 nM human α thrombin). Datum was collected over a 30 min period and the initial rate of substrate hydrolysis (V0 (mOD/min)) was calculated with an analysis program (Softmax, Molecular Devices).
The time to half plasma elimination (t 1/2) was calculated from the slope of VO vs. time, using the following equation: […]. These datum are presented in Table L. In Table L, the compound # corresponds to the compound number described in U.S. Pat. No. 5,523,308.

Human Skin Chymase = target: T1, Human Skin Chymase; experiment: Chymase 10 μM Screen Method; assay type: biochemical; details: 10 μM, room temperature, 5.0 nM enzyme, 3 hours; read-out: Chymase % Inhibition (10 μM)
Description: The enzyme reaction is started by the addition of enzyme ([E]: 1.0 nM human Lung Tryptase; Cortex Biochem CP3033). Data is collected over a period of 30 min. and the initial rate of substrate hydrolysis (Vo (mOD/min)) is calculated. Inhibition is calculated by comparing to wells containing no inhibitor (vehicle) and IC50 s are determined using a four parameter fit logistics model. […] Data is collected over a period of 30 min. and the initial rate of substrate hydrolysis (Vo (mOD/min)) is calculated. Inhibition is calculated by comparing to wells containing no inhibitor (vehicle) and IC50 s are determined using a four parameter fit logistics model. […] The enzyme reaction is started by the addition of enzyme ([E]: 5.0 nM Human Skin Chymase; Cortex Biochem CP1129), and 3 hours following that addition data is collected. After subtracting background (no enzyme addition), inhibition is calculated by comparing to wells containing no inhibitor (vehicle).

[4] = system: MelanoDerm human epidermal equivalents; details: MelanoDerm equivalents are known to respond; cited from earlier work
S91 cells = experiment: Pigmentation of choleratoxin-induced S91 cells; assay type: cell-based, mouse
Source text: Indeed, the level of pigmentation of human primary melanocytes or choleratoxin-induced S91 cells, which is reduced by hydroquinone and benzaldehyde, was not affected by Compound I.

Yucatan swine skin = Yucatan swine skin pigmentation, topical, visual/chromameter/histology
Source text: Each compound was applied to two sites on the pig twice daily, five days per week for eight weeks. After eight weeks of treatment, chromameter measurements were taken.
Two sites per concentration were placed on opposite sides of the swine dorsum. Chromameter measurements were taken before treatment started and every two weeks thereafter. Pictures were taken periodically and at the end of the experiment.

[5] = Table D, three days, DOPA stained on fourth day

Molecule | IC50 (human Lung Tryptase) | half-life (in vivo) | inhibition at 10 µM (Human Skin Chymase) | further results
TFLLRNPNDK [reference compound] |  |  |  | pigmentation/melanogenesis in epidermal equivalents [1]: no effect on pigmentation; effect on pigmentation, MelanoDerm (K-M contact) [1, 5]: no effect; effect on pigmentation, Melanocytes (no K) [2, 5]: no effect; effect on pigmentation, Co-cultures (no K-M contact) [3]: no effect
CN[C@H](Cc1ccccc1)C(=O)N1CCC[C@H]1C(=O)N[C@@H](CCCNC(=N)N)C(=O)c1nc2ccc(F)cc2s1 [Compound 17] | 11.1 nM | 8 min | 3% | 
N=C(N)NCCC[C@H](NC(=O)[C@@H]1CCCN1C(=O)CC(c1ccccc1)c1ccccc1)C(=O)c1nc2ccccc2s1 [Compound 3] |  | 6 min |  | 
CN[C@H](Cc1c(F)c(F)c(F)c(F)c1F)C(=O)N1CCC[C@H]1C(=O)N[C@@H](CCCNC(=N)N)C(=O)c1nc2ccccc2s1 [Compound 30] | 2.7 nM | 6 min | 6% | 
CN[C@H](Cc1ccccc1)C(=O)N1CCC[C@H]1C(=O)N[C@@H](CCCOC)C(=O)c1nc2ccccc2s1 [Compound 53] |  |  | 5% | 
CN[C@H](Cc1ccccc1)C(=O)N1CCC[C@H]1C(=O)N[C@@H](CCCNC(=N)N)C(=O)c1nc2c(ccc3ccccc32)s1 [Compound 52] | 33.7 nM | 8 min | 4% | 
Oc1ccc(O)cc1 [hydroquinone] |  |  |  | pigmentation of epidermal equivalents (known response to whitening agents) [4]: reducing pigmentation; level of pigmentation, human primary melanocytes [2]: reduced; level of pigmentation, choleratoxin-induced S91 cells (S91 cells): reduced
CN[C@H](Cc1ccccc1)C(=O)N1CCC[C@H]1C(=O)N[C@@H](CCCNC(=N)N)C(=O)c1nccs1 [Compound 4] |  | 16 min |  | 
SFLLRN [reference compound] |  |  |  | pigmentation/melanogenesis in epidermal equivalents [1]: trend of lightening or reducing pigmentation; effect on skin pigmentation (Yucatan swine skin; 10 μM, twice daily, five days per week, eight weeks): no significant effects
N=C(N)NCCC[C@H](NC(=O)C1CCCC1)C(=O)c1nc2ccccc2s1 [Compound 31] | 828 nM |  | 0% | 
CN[C@H](Cc1ccccc1)C(=O)N1CCC[C@H]1C(=O)N[C@@H](CCCN=C(N)N)C(=O)c1nc2ccccc2o1 [Compound 5] |  | 18 min |  | 
O=Cc1ccccc1 [benzaldehyde] |  |  |  | pigmentation of epidermal equivalents (known response to whitening agents) [4]: reducing pigmentation; level of pigmentation, human primary melanocytes [2]: reduced; level of pigmentation, choleratoxin-induced S91 cells (S91 cells): reduced
Hirudin |  |  |  | pigmentation/melanogenesis in epidermal equivalents [1]: no effect on pigmentation
CN[C@H](Cc1ccccc1)C(=O)N1CCC[C@H]1C(=O)N[C@@H](CCCNC(=N)N)C(=O)c1nc2ccc(C(=O)OC)cc2s1 [Compound 12] | 1.7 nM | 43 min | 2% | 
CN[C@H](Cc1ccccc1)C(=O)N1CCC[C@H]1C(=O)N[C@@H](CCCNC(=N)N)C(=O)c1nc2ccccc2[nH]1 [Compound 35] | 15.1 nM | 11 min | 4% | 
CCCC[C@H](NC(=O)[C@@H]1CCCN1C(=O)[C@@H](Cc1ccccc1)NC)C(=O)c1nc2ccccc2s1 [Compound 39] | > 10000 nM |  | 37% | 
B1 |  |  |  | pigmentation, dose-response ([1]; increasing concentrations, SLIGRL 0, 10 and 50 μM, Compound I 0.1 μM to 1 μM, FIG. 4A): has the same effect
B2 |  |  |  | pigmentation/melanogenesis in epidermal equivalents [1]: very effective in inhibiting melanogenesis; also recorded: reduces pigmentation; visual lightness of treated sites versus surrounding skin (Yucatan swine skin; twice a day, five days a week, at seven weeks): visually lighter than the surrounding skin

Reference: patent US6323219A, “Methods for treating immunomediated inflammatory disorders” (Ortho-McNeil Pharmaceutical, Inc., priority 1999, dated 2001)
